According to US9663463B2, “3-azabicyclo[3.1.0]hexane derivative and use thereof for medical purpose” (priority 2013, dated 2017):
Counter-ions that a name gives are not always drawn. Like-named read-outs stand apart in the source and are kept apart here.

Tests used:
[1] = Plasma concentration of test substance at ED50 value (mice, LC/MS/MS); assay type: in vivo; settings: at the ED50 value, at time of morphine administration, oral, linear regression from two doses
Protocol: The concentration of the test substances in blood plasma was confirmed by using mice of the same week-old for the same dose as that used in the evaluation of the anti-pruritic effect. The test substance was administered by forced oral administration of an administration vehicle prepared in a similar manner to that in the evaluation of the anti-pruritic effect under a non-fasting condition. The blood samples were collected from the orbital venous plexus, within from 15 minutes after the administration of the test substance to after 180 minutes at the maximum, for multiple times including the timing at which the morphine solution was intracisternally administered, under inhalation anesthesia with diethyl ether or isoflurane using a heparin-treated hematocrit tubes. The collected blood samples were immediately ice-cooled and centrifuged at 1,800 g for 15 minutes at 4° C., and the plasma fractions were transferred and stored under freezing at −30° C. or less until measurement.
The concentrations of the test substances in plasma were measured using LC/MS/MS. Furthermore, as the measurement samples for LC/MS/MS, the supernatants obtained by adding an internal standard substance and acetonitrile in an amount within a range from 5-fold to 10-fold of the amount of the plasma to the collected plasma samples, and removing proteins therefrom, was used.

[2] = target: hERG (Homo sapiens (Human), UniProt Q12809); test: Safety margin against hERG inhibitory activity; settings: hERG IC50×1000/{concentration in plasma at ED50×(1−protein binding rate/100)}
Protocol: In order to compare the risks of extension of QT interval prolongation in the electrocardiogram among the test substances, the safety margins against the hERG inhibitory effect were calculated. […] Therefore, the following formula was used for calculating the safety margin, and the obtained values were described in Table 7. Safety margin against hERG inhibitory effect=IC50×1000/{concentration in plasma×(1−protein binding rate/100)}
IC50: the IC50 value in a hERG inhibition assay (μM)
Plasma concentration: the plasma concentration of test substance (nM) at the ED50 value in the test for evaluating the anti-pruritic effect in the morphine model
Protein binding rate: the protein binding rate (%) in the protein binding assay in murine serum

[3] = system: pruritus mice model to which morphine had been intracisternally administered; test: Anti-pruritic effect in pruritus mice model to which morphine had been intracisternally administered; assay type: in vivo; settings: oral administration, male ICR mice, inhibition of morphine-induced scratching behavior
Protocol: As experimental animals, male ICR (Cr1j: CD1 (ICR): Charles River Japan) mice were used at 5 to 6-week old. The mice were placed in an acrylic cage (colorless and transparent, W 13.5 cm×D 9.5 cm×H 40 cm) for observing scratching behavior for 30 minutes or more to thereby allow the mice to get used to the observation environment, and the test substance solutions were forcedly orally administered to the test substance-administered groups. In addition, an administration vehicle was forcedly orally administered to the normal control group and the pathological control group. A necessary amount of the test substance was weighed and formed into a micropowder in an agate mortar, an administration vehicle, a 0.5 w/v % methyl cellulose 400 solution (Wako Pure Chemical Industries Ltd.) was added little by little, and preparation was performed by suspending or dissolving so as to give an intended concentration (from 0.025 to 3 mg/ml). The test doses were preset to suitable doses in the range in which the maximum dose is 30 mg/10 ml/kg.
Based on 30 minutes after the forced oral administration of the test substance as a criterion, the time for the intracisternal administration of morphine was suitably set up to 120 minutes after at the maximum, with consideration for the times of maximum plasma concentration of the respective test substances, in the case when the in vivo pharmacokinetics of the test substance had been confirmed in advance. Furthermore, saline was intracisternally administered to the normal control group, and the above-mentioned morphine solution was intracisternally administered to the pathogenic control group, so as to be 5 μL/site at the same time as that of the test substance group after the forced oral administration of the administration vehicle in either case.
The behavior of each mouse within 60 minutes from the intracisternal administration of the morphine solution or saline was recorded by a digital video camera that was installed immediately above the acrylic cage, the images were stored in a digital video recorder, and the number of frequency of the scratching behavior was measured. The number of frequency of the scratching behavior was measured with deeming a behavior in which the mouse raised its hindlimb, scratched the facial surface and the peripheral sites thereof, and got the hindlimb off from the body within 30 minutes from after the intracisternal administration of the morphine or saline as one time.
The anti-pruritic effect of each test substance was obtained as follows. As an inhibition ratio against the number of frequency of the scratching behavior on the pathological control group, the inhibition ratio (%) of the respective individuals and the average value thereof were calculated from the following formula, and an ED50 value was calculated based on the obtained inhibition ratio. Inhibition ratio of each individual (%)={1−(A−Vehicle)/(Morphine−Vehicle)}×100 Morphine: the average of the scratching number of the pathological control group Vehicle: the average of the scratching number of the normal control group A: the scratching number of each individual in the test substance-administered group

[4] = target: hERG current (Homo sapiens (Human), UniProt Q12809); test: cell-based
Excerpt: A: the suppression rate (%) of the test substance in each cell
B: the average suppression rate (%) of the vehicle control group

[5] = target: human μ-opioid receptor (Homo sapiens (Human), UniProt P35372); test: Antagonist activity test using [35S]-GTPγS bond as index using human μ-opioid receptor-expressing cell membrane; assay type: biochemical
Protocol: Cells in which a human μ-opioid receptor had been highly expressed was purchased from ChanTest (Cleveland). The cells were cultured in a carbon dioxide gas culturing apparatus by using a Ham's F12 culture medium (Invitrogen) containing 10% of fetal bovine blood serum, 1% of non-essential amino acids, 0.4 mg/ml of G418, 100 U/ml of penicillin and 100 μg/ml of streptomycin. The cultured cells were suspended by using a 0.25% trypsin 1 mM EDTA solution, the suspension was collected by using phosphate-buffered saline and centrifuged at 4° C. and 1,000 rpm for 10 minute to remove the supernatant, whereby a cell mass was obtained. […] Similar homogenization and centrifugation operations were repeated on the sediment, a homogenized buffer was added again to the obtained sediment, and the resultant was similarly homogenized to give a membrane fraction solution. The obtained membrane fraction solution was dispensed, rapidly frozen and stored under freezing at −70° C. or less until use. Furthermore, the protein concentration of the obtained membrane fraction solution was measured by using a BCA protein Assay Kit (Cat. 23227, Pierce) according to the protocol attached to the kit.
The cell membrane fraction solution in which the human μ-opioid receptor had expressed, which had been stored under freezing, was melted, a GTP assay buffer (100 mM NaCl, 5 mM MgCl2, 1 mM EDTA-containing 50 mM Hepes (pH 7.4)) was added thereto, and the resultant was homogenized repeatedly twice by using a Polytron homogenizer (SMT Multi Disperser PB95) under ice cooling at 12,000 rpm for 20 seconds to give a homogeneous solution, and the homogeneous solution was diluted to 0.036 mg/ml with a GTP assay buffer containing 18.2 μM of GDP (final concentration: […]). The dilution was incubated for 15 minutes or more under ice cooling until the reaction was initiated. […] [^35S]-GTPγS (NEG030X, Perkinelmer) was diluted with a GTP assay buffer so as to be 0.616 nM (final concentration: 0.08 nM). The resultant was diluted with a GTP assay buffer so as to be 200 nM (final concentration: 10 nM) by using [D-Ala^2, N-Me-Phe^4, Gly^5-ol]-enkephalinacetate (DAMGO, Sigma) as a μ-opioid receptor agonist. WGA Coated PVT SPA Beads (RPNQ0001, Perkinelmer) were added so as to be 20 mg/ml with a GTP assay buffer, and the resultant was suspended (final concentration: 1 mg/well). 4 μL/well of a test substance solution, 10 μL/well of a DAMGO solution, 26 μL/well of a [^35S]-GTPγS solution, […] of a suspension liquid of WGA Coated PVT SPA Beads, and 110 μL/well of the membrane fraction solution were added to a 96 well plate (1450-401, Perkinelmer), the top part of the plate was sealed, and a reaction was performed at 30° C. for 60 minutes under stirring with a plate shaker. For each measurement plate, a well to which DMSO had been added instead of the test substance, and a well to which DMSO had been added instead of the test substance and a GTP assay buffer had been added instead of the DAMGO solution were prepared. Furthermore, after the reaction was completed, the reactant was centrifuged at room temperature and 1,000 rpm for 3 minutes, and the radioactivity was measured by a microplate scintillation luminescence counter (Perkinelmer).
The IC50 value of the test substance was calculated by using Graphpad Prism 5.

[6] = in vitro; assay type: in vitro ADME, mice; settings: Crl:CD-1 (ICR), mouse, pH 7.4; murine serum, equilibrium dialysis, 37° C., 5 to 6 hours; read-out: Protein binding rate (converted)
Protocol: (§1) The protein binding rate was determined by equilibrium dialysis method using the RED Device (8K MWCO, Rapid Equilibrium Dialysis Device, Thermo Scientific). The test substances that had been dissolved in DMSO were added to the serum that was collected from Crl: CD-1 (ICR) mice fasted overnight, so that the final concentration of DMSO became 1% (v/v). The serum to which the test substance had been added was added to the inner side of the dialysis membrane of the RED Device, and PBS (phosphate buffer saline, pH 7.4) containing 0.01% (v/v) Tween 80 was added to the outside in accordance with the method for using the RED Device and incubated at 37° C. for 5 to 6 hours with ellipsoidal shaking at 100 rpm so that the concentration of the unbound test substance in the serum and the concentration of the test substance in the PBS reached equilibrium. After the incubation was completed, the respective solutions were collected and stored under freezing at −60° C. or less as measurement samples. The proteins were removed from the measurement sample by adding acetonitrile in an amount of 5-fold or more of the amount of the internal standard substance and the serum sample, and the supernatants were measured by LC/MS/MS (liquid chromatograph—triple quadrupole mass spectrometer). The serum samples were measured after suitably diluting with distilled water as necessary.
(§2) A: the concentration of the test substance in the PBS sample
(§3) B: the concentration of the test substance in the serum sample

[7] = system: Mice serum protein; test: in vitro; assay type: in vitro ADME; settings: murine serum, equilibrium dialysis, 37° C., 5 to 6 hours
Protocol: as §1, §2, §3

Sequence of hERG current (Q12809 whole entry): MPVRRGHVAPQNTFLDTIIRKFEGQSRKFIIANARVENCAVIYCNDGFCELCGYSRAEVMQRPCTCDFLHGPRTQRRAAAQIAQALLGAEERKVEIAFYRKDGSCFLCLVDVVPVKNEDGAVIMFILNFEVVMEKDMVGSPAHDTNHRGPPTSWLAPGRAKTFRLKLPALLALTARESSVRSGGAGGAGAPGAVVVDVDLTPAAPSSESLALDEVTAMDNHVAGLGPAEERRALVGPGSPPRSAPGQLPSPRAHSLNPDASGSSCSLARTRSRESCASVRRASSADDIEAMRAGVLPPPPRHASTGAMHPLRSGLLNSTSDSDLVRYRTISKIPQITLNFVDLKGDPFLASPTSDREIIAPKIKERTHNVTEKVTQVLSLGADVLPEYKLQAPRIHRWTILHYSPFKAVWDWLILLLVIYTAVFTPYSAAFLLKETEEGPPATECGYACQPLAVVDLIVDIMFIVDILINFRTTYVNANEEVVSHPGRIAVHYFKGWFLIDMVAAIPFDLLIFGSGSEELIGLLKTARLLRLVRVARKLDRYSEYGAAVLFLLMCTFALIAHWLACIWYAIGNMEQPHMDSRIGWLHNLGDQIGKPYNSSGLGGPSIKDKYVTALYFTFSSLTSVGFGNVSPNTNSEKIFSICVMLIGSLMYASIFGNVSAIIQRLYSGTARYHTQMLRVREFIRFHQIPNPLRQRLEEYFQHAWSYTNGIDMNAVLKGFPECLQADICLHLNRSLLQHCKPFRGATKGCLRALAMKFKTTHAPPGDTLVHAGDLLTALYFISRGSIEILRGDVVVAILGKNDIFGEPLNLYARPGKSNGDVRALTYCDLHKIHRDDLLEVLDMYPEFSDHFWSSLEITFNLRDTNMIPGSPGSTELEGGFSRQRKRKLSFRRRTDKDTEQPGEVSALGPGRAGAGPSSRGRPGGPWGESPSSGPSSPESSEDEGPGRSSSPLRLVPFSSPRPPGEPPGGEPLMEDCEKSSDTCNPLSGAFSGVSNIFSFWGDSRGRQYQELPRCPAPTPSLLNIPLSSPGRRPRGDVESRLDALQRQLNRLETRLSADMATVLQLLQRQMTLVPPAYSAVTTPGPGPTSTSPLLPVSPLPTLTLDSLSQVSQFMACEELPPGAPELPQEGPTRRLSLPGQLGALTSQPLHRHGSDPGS

Question: With `CC[C@]1(c2cccc(NS(=O)(=O)C3CC3)c2)[C@@H]2CN(CC3(OC)Cc4ccccc4C3)C[C@@H]21` [Example 3-(b), N-(3-{(1R,5S,6r)-6-ethyl-3-[(2-methoxy-2,3-dihydro-1H-inden-2-yl)methyl]-3-azabicyclo[3.1.0]hexan-6-yl}phenyl)cyclopropanesulfonamide hydrochloride] as the compound, how does the “Plasma concentration of test substance” value [1] read?
Answer: 0.0488 µM

Question: And the Safety margin [2]?
Answer: 1980

Question: What about the ED50 ([3]; Mus musculus, read-out: ED50) of the same compound?
Answer: 4.2 mg/kg

Question: What about the IC50 [4] of the same compound?
Answer: 0.58 µM

Question: What about the IC50 [5] of the same compound?
Answer: 0.0036 µM

Question: Which ED50 ([3]; Mus musculus, read-out: ED50) does the source give for `CC[C@]1(c2cccc(NS(=O)(=O)C3CC3)c2)[C@@H]2CN(CCCC3(OC)CCC(F)(F)CC3)C[C@@H]21` [Example 6-(b), N-(3-{(1R,5S,6r)-3-[3-(4,4-difluoro-1-methoxycyclohexyl)propyl]-6-ethyl-3-azabicyclo[3.1.0]hexan-6-yl}phenyl)cyclopropanesulfonamide hydrochloride] here?
Answer: 0.42 mg/kg

Question: And the fraction unbound [6]?
Answer: 0.039

Question: What about the IC50 [4] of the same compound?
Answer: 0.66 µM

Question: With `CC[C@]1(c2cccc(NS(=O)(=O)C3CC3)c2)[C@@H]2CN(CC3(O)Cc4ccccc4C3)C[C@@H]21` [Example 1-(a), N-(3-{(1R,5S,6r)-6-ethyl-3-[(2-hydroxy-2,3-dihydro-1H-inden-2-yl)methyl]-3-azabicyclo[3.1.0]hexan-6-yl}phenyl)cyclopropanesulfonamide] as the compound, how does the “Plasma concentration of test substance” value [1] read?
Answer: 0.0708 µM

Question: What about the Safety margin [2] of the same compound?
Answer: 82

Question: What about the ED50 ([3]; Mus musculus, read-out: ED50) of the same compound?
Answer: 3.5 mg/kg

Question: What about the fraction unbound [6] of the same compound?
Answer: 0.019

Question: And the IC50 [4]?
Answer: 0.11 µM

Question: With `CC[C@]1(c2cccc(NS(=O)(=O)C3CC3)c2)[C@@H]2CN(CCCN3CCC(F)(F)CC3)C[C@@H]21` [Example 7-(b), N-(3-{(1R,5S,6r)-3-[3-(4,4-difluoropiperidin-1-yl)propyl]-6-ethyl-3-azabicyclo[3.1.0]hexan-6-yl}phenyl)cyclopropanesulfonamide hydrochloride] as the compound, how does the “Plasma concentration of test substance” value [1] read?
Answer: 0.0215 µM

Question: And the Safety margin [2]?
Answer: 375

Question: What about the ED50 ([3]; Mus musculus, read-out: ED50) of the same compound?
Answer: 2.4 mg/kg

Question: And the IC50 [4]?
Answer: 1.2 µM

Question: What about the IC50 [5] of the same compound?
Answer: 0.0014 µM

Question: With `C[C@]1(c2cccc(NS(=O)(=O)C3CC3)c2)[C@@H]2CN(CC3(O)Cc4ccccc4C3)C[C@@H]21` [Example 17-(b), N-(3-{(1R,5S,6r)-3-[(2-hydroxy-2,3-dihydro-1H-inden-2-yl)methyl]-6-methyl-3-azabicyclo[3.1.0]hexan-6-yl}phenyl)cyclopropanesulfonamide hydrochloride] as the compound, how does the “Plasma concentration of test substance” value [1] read?
Answer: 0.0682 µM

Question: What about the Safety margin [2] of the same compound?
Answer: 48

Question: What about the ED50 ([3]; Mus musculus, read-out: ED50) of the same compound?
Answer: 1.5 mg/kg

Question: And the IC50 [4]?
Answer: 0.13 µM

Question: And the IC50 [5]?
Answer: 0.0054 µM

Question: For `CC[C@]1(c2cccc(NS(C)(=O)=O)c2)[C@@H]2CN(CC3(O)Cc4ccccc4C3)C[C@@H]21.CS(=O)(=O)O` [Comparative compound 1, N-(3-{(1R,5S,6r)-6-ethyl-3-[(2-hydroxy-2,3-dihydro-1H-inden-2-yl)methyl]-3-azabicyclo[3.1.0]hexan-6-yl}phenyl)methanesulfonamide methanesulfonate, reference compound], which “Plasma concentration of test substance” value [1] is on record?
Answer: 0.157 µM

Question: What about the ED50 [3] of the same compound?
Answer: 2.6 mg/kg

Question: What about the Protein binding rate [7] of the same compound?
Answer: 93.2%

Question: What about the IC50 ([5]; inhibition of DAMGO (10 nM)-stimulated [35S]-GTPγS binding, human μ-opioid receptor membrane, read-out: IC50) of the same compound?
Answer: 0.0013 µM
